Here are results for seven compounds from PubChem BioAssay AID226 (DTP/NCI, 2004).

Structures are written as SMILES. “And” between values parts separate entries of the source, which are not always exact repeats. Equal values may be shown once. Inconclusive results and toxic doses are left out.

The test system of this experiment is B6C3F1 mice, intracerebral ependymoblastoma, median survival T/C. Nature of the experiment: NCI In Vivo Anticancer Drug Screen. Data for tumor model Ependymoblastoma (intracerebral) in B6C3F1 mice. Conditions: endpoint: median survival time, higher = longer survival. The method, then: The antitumor activity of compounds was measured in mice bearing transplantable tumors. Survival or tumor size were measured and the results are expressed as the measurement made in the treated group (T) divided by the measurement made in the vehicle treated control group (C). The tumor model used in this assay is Ependymoblastoma (intracerebral) in B6C3F1 mice

The mark [1] stands for this setting: dose: 20.0 mg/kg/injection, schedule: Q01DX001 (ip), vehicle: Klucel (hydroxypropylcellulose) (HPC).

Regarding `ClC1C(Cl)C(Cl)C(Cl)C(Cl)C1Cl` (centres undefined), the T/C was 100 % of control (dose: 12.5 mg/kg/injection, schedule: Q01DX005 (ip), vehicle: Klucel (hydroxypropylcellulose) (HPC)); 107 % of control and 108 % of control (dose: 25.0 mg/kg/injection, schedule: Q01DX005 (ip), vehicle: Klucel (hydroxypropylcellulose) (HPC)); 95 % of control and 102 % of control (dose: 50.0 mg/kg/injection, schedule: Q01DX005 (ip), vehicle: Klucel (hydroxypropylcellulose) (HPC)); 117 % of control and 118 % of control (dose: 100.0 mg/kg/injection, schedule: Q01DX005 (ip), vehicle: Klucel (hydroxypropylcellulose) (HPC)); 98 % of control and 107 % of control (dose: 200.0 mg/kg/injection, schedule: Q01DX005 (ip), vehicle: Klucel (hydroxypropylcellulose) (HPC)); 107 % of control (dose: 400.0 mg/kg/injection, schedule: Q01DX005 (ip), vehicle: Klucel (hydroxypropylcellulose) (HPC)).
Turning to `O=[N+]([O-])O.[Ga]`, the T/C (dose: 32.0 mg/kg/injection, schedule: Q01DX005 (ip), vehicle: saline) is 107 % of control; the T/C (dose: 64.0 mg/kg/injection, schedule: Q01DX005 (ip), vehicle: saline) is 100 % of control; the T/C (dose: 128.0 mg/kg/injection, schedule: Q01DX005 (ip), vehicle: saline) was 105 % of control.
For `O=NN(CCCl)C(=O)NC1CCC(=O)NC1=O` (centres undefined), the T/C is, setting by setting: (dose: 0.5 mg/kg/injection, schedule: Q01DX005 (ip), vehicle: Klucel (hydroxypropylcellulose) (HPC)) 91 % of control; (dose: 0.5 mg/kg/injection, schedule: Q01DX005 (ip), vehicle: saline with Tween-80) 109 % of control; (dose: 1.0 mg/kg/injection, schedule: Q01DX005 (ip), vehicle: Klucel (hydroxypropylcellulose) (HPC)) 114 % of control; (dose: 1.0 mg/kg/injection, schedule: Q01DX005 (ip), vehicle: suspension in saline) 124 % of control; (dose: 1.0 mg/kg/injection, schedule: Q01DX009 (ip), vehicle: saline with Tween-80) 241 % of control; (dose: 2.0 mg/kg/injection, schedule: Q01DX005 (ip), vehicle: saline with Tween-80) 238 % of control. The T/C is 241 % of control (dose: 2.0 mg/kg/injection, schedule: Q01DX009 (ip), vehicle: saline with Tween-80); 309 % of control (dose: 2.59 mg/kg/injection, schedule: Q01DX005 (ip), vehicle: Klucel (hydroxypropylcellulose) (HPC)); 154 % of control (dose: 4.0 mg/kg/injection, schedule: Q01DX001 (ip), vehicle: saline + alcohol); 207 % of control (dose: 4.0 mg/kg/injection, schedule: Q01DX005 (ip), vehicle: Klucel (hydroxypropylcellulose) (HPC)); 396 % of control (dose: 4.0 mg/kg/injection, schedule: Q01DX005 (ip), vehicle: saline with Tween-80); 179 % of control and 236 % of control and 260 % of control (dose: 4.0 mg/kg/injection, schedule: Q01DX005 (ip), vehicle: suspension in saline). In addition, the T/C is, setting by setting: (dose: 4.32 mg/kg/injection, schedule: Q01DX005 (ip), vehicle: Klucel (hydroxypropylcellulose) (HPC)) 357 % of control; (dose: 5.0 mg/kg/injection, schedule: Q01DX001 (ip), vehicle: DMSO) 112 % of control; (dose: 6.0 mg/kg/injection, schedule: Q01DX005 (ip), vehicle: suspension in saline) 262 % of control and 267 % of control; (dose: 7.2 mg/kg/injection, schedule: Q01DX001 (ip), vehicle: Klucel (hydroxypropylcellulose) (HPC)) 187 % of control; (dose: 7.2 mg/kg/injection, schedule: Q01DX005 (ip), vehicle: Klucel (hydroxypropylcellulose) (HPC)) 357 % of control; (dose: 8.0 mg/kg/injection, schedule: Q01DX001 (ip), vehicle: saline + alcohol) 229 % of control. For the same compound, the T/C (dose: 8.0 mg/kg/injection, schedule: Q01DX005 (ip), vehicle: Klucel (hydroxypropylcellulose) (HPC)) was 274 % of control; the T/C (dose: 8.0 mg/kg/injection, schedule: Q01DX005 (ip), vehicle: saline with Tween-80) is 172 % of control; the T/C (dose: 8.0 mg/kg/injection, schedule: Q01DX005 (ip), vehicle: suspension in saline) is 205 % of control; the T/C (dose: 8.3 mg/kg/injection, schedule: Q01DX001 (ip), vehicle: DMSO) was 226 % of control; the T/C (dose: 10.0 mg/kg/injection, schedule: Q07DX003 (ip), vehicle: saline) was 175 % of control; the T/C (dose: 10.0 mg/kg/injection, schedule: Q07DX003 (ip), vehicle: suspension in saline) is 252 % of control. Moreover, the T/C is 363 % of control (dose: 12.0 mg/kg/injection, schedule: Q01DX001 (ip), vehicle: Klucel (hydroxypropylcellulose) (HPC)); 357 % of control (dose: 12.0 mg/kg/injection, schedule: Q01DX005 (ip), vehicle: Klucel (hydroxypropylcellulose) (HPC)); 367 % of control (dose: 13.8 mg/kg/injection, schedule: Q01DX001 (ip), vehicle: DMSO); 324 % of control (dose: 16.0 mg/kg/injection, schedule: Q01DX001 (ip), vehicle: saline + alcohol); 114 % of control (dose: 16.0 mg/kg/injection, schedule: Q01DX005 (ip), vehicle: saline with Tween-80); 363 % of control under setting [1]. Besides, the T/C by setting is: (dose: 20.0 mg/kg/injection, schedule: Q07DX003 (ip), vehicle: saline) 99 % of control; (dose: 20.0 mg/kg/injection, schedule: Q07DX003 (ip), vehicle: suspension in saline) 252 % of control; (dose: 23.0 mg/kg/injection, schedule: Q01DX001 (ip), vehicle: DMSO) 367 % of control; (dose: 32.0 mg/kg/injection, schedule: Q01DX001 (ip), vehicle: saline + alcohol) 324 % of control; (dose: 32.0 mg/kg/injection, schedule: Q01DX001 (ip), vehicle: suspension in saline) 120 % of control; (dose: 33.3 mg/kg/injection, schedule: Q01DX001 (ip), vehicle: Klucel (hydroxypropylcellulose) (HPC)) 90 % of control. The T/C (dose: 38.4 mg/kg/injection, schedule: Q01DX001 (ip), vehicle: DMSO) is 366 % of control.
For the compound `Nc1ccc(S(=O)(=O)c2ccc(N)cc2)cc1`, the T/C is 122 % of control (dose: 25.0 mg/kg/injection, schedule: Q01DX005 (ip), vehicle: saline with Tween-80); 100 % of control (dose: 50.0 mg/kg/injection, schedule: Q01DX005 (ip), vehicle: saline with Tween-80); 108 % of control (dose: 100.0 mg/kg/injection, schedule: Q01DX005 (ip), vehicle: saline with Tween-80).
`CC([NH-])C[NH-].[Cl][Pt+2][Cl]` (centres undefined): the T/C (dose: 2.0 mg/kg/injection, schedule: Q01DX005 (ip), vehicle: dextrose) was 94 % of control.
Take `N=[N+]=CC(=O)CCC(NC(=O)C(CCC(=O)C=[N+]=N)NC(=O)CCC(N)C(=O)O)C(=O)O` (centres undefined): the T/C is, setting by setting: (dose: 0.05 mg/kg/injection, schedule: Q01DX005 (ip), vehicle: Klucel (hydroxypropylcellulose) (HPC)) 100 % of control and 106 % of control; (dose: 0.1 mg/kg/injection, schedule: Q01DX005 (ip), vehicle: Klucel (hydroxypropylcellulose) (HPC)) 90 % of control and 107 % of control; (dose: 0.2 mg/kg/injection, schedule: Q01DX005 (ip), vehicle: Klucel (hydroxypropylcellulose) (HPC)) 99 % of control and 108 % of control; (dose: 0.4 mg/kg/injection, schedule: Q01DX005 (ip), vehicle: Klucel (hydroxypropylcellulose) (HPC)) 97 % of control and 114 % of control.
For the compound `S=c1nc[nH]c2nc[nH]c12`, the T/C is 92 % of control and 99 % of control and 101 % of control (dose: 10.0 mg/kg/injection, schedule: Q01DX001 (ip), vehicle: Klucel (hydroxypropylcellulose) (HPC)); 98 % of control and 100 % of control and 107 % of control under setting [1]; 100 % of control and 103 % of control (2×) (dose: 40.0 mg/kg/injection, schedule: Q01DX001 (ip), vehicle: Klucel (hydroxypropylcellulose) (HPC)); 95 % of control and 103 % of control and 107 % of control (dose: 80.0 mg/kg/injection, schedule: Q01DX001 (ip), vehicle: Klucel (hydroxypropylcellulose) (HPC)); 100 % of control and 101 % of control and 116 % of control (dose: 160.0 mg/kg/injection, schedule: Q01DX001 (ip), vehicle: Klucel (hydroxypropylcellulose) (HPC)).
